Source: patent publication US20240041764A1, “Sustained-Release Oral Fosamprenavir Formulation for Treatment of Reflux” (The Medical College of Wisconsin, Inc., priority 2022, published 2024)
Entries after “also recorded” stand apart in the source; their conditions may differ. Square brackets hold non-standard residues; d marks the D form. Peptide text beside a SMILES is read from it. * marks the point of attachment. Sta = CC(C)C[C@H](N)[C@@H](O)CC(=O)O; Isovaleryl = CC(C)CC(=O)*

Assays:
[1] = in vivo; cited from earlier work
[2] = target: T1, porcine pepsin (Sus scrofa, UniProt P00791); assay: peptic activity assay, fluorescence polarization with casein-Alexa647; assay type: biochemical; settings: for inhibited pepsin (peptic activity): 200 nM probe, 0.01 U/μL pepsin, 5% DMSO, 0.1 M HCl pH 1
T1 construct: purchased Worthington Biochemical Corporation
T1 sequence (P00791 60-385): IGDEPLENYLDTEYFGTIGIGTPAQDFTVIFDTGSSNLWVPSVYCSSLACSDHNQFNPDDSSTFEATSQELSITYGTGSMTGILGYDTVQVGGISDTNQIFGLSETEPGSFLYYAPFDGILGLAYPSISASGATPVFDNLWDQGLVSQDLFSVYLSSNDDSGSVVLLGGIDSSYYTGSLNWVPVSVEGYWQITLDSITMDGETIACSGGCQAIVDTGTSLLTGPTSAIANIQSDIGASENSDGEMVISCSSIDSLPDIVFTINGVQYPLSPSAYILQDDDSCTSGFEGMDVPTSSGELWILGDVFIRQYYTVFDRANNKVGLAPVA
Experimental: To examine whether HIV protease inhibitors bound and inhibited pepsin, we developed assays based on fluorescence polarization which measures size-dependent molecular rotation thereby permitting detection of degradation, association and dissociation events^80. A competitive binding assay was designed employing pepstatin, an inhibitor of sub-nanomolar affinity^81. Pepstatin-Alexa647 was synthesized by dissolving 1 mg pepstatin A (Sigma-Aldrich) in a 50:50 mixture of dimethylformamide (DMF) and dimethylsulfoxide (DMS) followed by the addition of N,N,N′,N′-Tetramethyl-O—(N-succinimidyl)uronium tetrafluoroborate (0.6 mg) and trimethylamine (10 μL) DMF. The mixture was stirred for 1 hour, after which 1 mg Alexa Fluor 647 Cadaverine, Disodium Salt (ThermoFisher Scientific) was added. After 2 hours, the solvents were evaporated under high vacuum (35° C.) and residue partially dissolved in 10% methanol and transferred onto a C18 cartridge (Waters Corporation, Milford, MA). Increasing percentages of methanol were used for the elution. […] An enzymatic inhibition assay was designed using casein substrate.^82 Bovine alpha casein (Sigma-Aldrich, St. Louis, MO) was labeled with Alexa Fluor 647 Carboxylic Acid, Succinimidyl Ester (ThermoFisher Scientific, Waltham, MA) as described.^82 Briefly, the two were combined at 2.5 ug/mg label to protein ratio in 0.1M sodium bicarbonate for 15 minutes and labeled casein was separated from unbound label in a Sephadex G-25 (Sigma-Aldrich) column comprised of 90×5 mm packed beads in a glass Pasteur pipette, eluted with dPBS pH7.4 (ThermoFisher Scientific). The fast-moving band (casein-bound fluorophore) was collected in ˜0.4 ml volume. Concentration of resultant probe (casein-Alexa647 in PBS-azide) was estimated via spectrophotometry using Beer's law (Implen Nanophotometer, Implen, Inc. Westlake Village, CA).
(§1) Assays were optimized using ranges of 0.3-1000 μM unlabeled pepstatin, 100-500 nM pepstatin-Alexa647 or casein-Alexa647 probe, 0.003-3 U/μl porcine pepsin (Worthington Biochemical Corporation, Lakewood, NJ), and 5-37.5% DMSO (HIV protease inhibitor diluent) in 0.1 M HCl, pH 1 with 0.01% v/v Tween-20 in 20 μl volumes in 384-well black optical plates (Nunc, Roskilde, DK) and read on a BioTek Cytation 5 (BioTek Instruments, Winooski, VT) with far red FP filter cube (excitation/emission 620/680 nm). Unlabeled pepstatin dose-response curves were used to ensure that the assays were responsive to pepsin inhibition. […] Assays were performed twice with triplicate reactions read for five minutes and mean mP plotted against probe concentration (binding assay) or read at <2 minutes intervals over 30 minutes with mean mP of plotted over time (activity assay). Half maximal inhibitory concentration (IC50) of inhibitors were calculated from kinetic traces analyzed using an online tool (https://icekat.herokuapp.com/icekat)^83. mP was normalized to blank (absent inhibitor) to derive percent bound or activity.

[3] = target: T2, porcine pepsin A (Sus scrofa, UniProt P00791); assay: competitive binding assay, fluorescence polarization with pepstatin-Alexa647; settings: 100 nM probe, 0.03 U/ul porcine pepsin A, 37.5% DMSO, 0.1 M HCl pH 1
T2 construct: purchased Worthington Biochemical Corporation
T2 sequence (P00791 60-385): as above
Experimental: To examine whether HIV protease inhibitors bound and inhibited pepsin, we developed assays based on fluorescence polarization which measures size-dependent molecular rotation thereby permitting detection of degradation, association and dissociation events^80. A competitive binding assay was designed employing pepstatin, an inhibitor of sub-nanomolar affinity^81. Pepstatin-Alexa647 was synthesized by dissolving 1 mg pepstatin A (Sigma-Aldrich) in a 50:50 mixture of dimethylformamide (DMF) and dimethylsulfoxide (DMS) followed by the addition of N,N,N′,N′-Tetramethyl-O—(N-succinimidyl)uronium tetrafluoroborate (0.6 mg) and trimethylamine (10 μL) DMF. The mixture was stirred for 1 hour, after which 1 mg Alexa Fluor 647 Cadaverine, Disodium Salt (ThermoFisher Scientific) was added. After 2 hours, the solvents were evaporated under high vacuum (35° C.) and residue partially dissolved in 10% methanol and transferred onto a C18 cartridge (Waters Corporation, Milford, MA). Increasing percentages of methanol were used for the elution. Pepstatin-Alexa647 eluted at 45% methanol. An enzymatic inhibition assay was designed using casein substrate.^82 Bovine alpha casein (Sigma-Aldrich, St. Louis, MO) was labeled with Alexa Fluor 647 Carboxylic Acid, Succinimidyl Ester (ThermoFisher Scientific, Waltham, MA) as described.^82 Briefly, the two were combined at 2.5 ug/mg label to protein ratio in 0.1M sodium bicarbonate for 15 minutes and labeled casein was separated from unbound label in a Sephadex G-25 (Sigma-Aldrich) column comprised of 90×5 mm packed beads in a glass Pasteur pipette, eluted with dPBS pH7.4 (ThermoFisher Scientific). The fast-moving band (casein-bound fluorophore) was collected in ˜0.4 ml volume. […]
as §1, with “nm).” for “nm). Unlabeled pepstatin dose-response curves were used to ensure that the assays were responsive to pepsin inhibition.”

[4] = cited from earlier work
[5] = system: pepsin; settings: cited from earlier work
[6] = system: pepsin; settings: cited from earlier work; remark: listed apart in the source
[7] = system: patients with HEMII-pH testing-confirmed alkaline LPR; settings: thrice daily post meal with anti-reflux diet; n=48; cited from earlier work

inhibited pepsin (peptic activity) [2] | bound pepsin (competitive binding) [3] | Molecule | side effects [1] | effect on pepsin-mediated damage and inflammation [5] | also measured
low micromolar | low micromolar | CC(C)c1nc(CN(C)C(=O)N[C@H](C(=O)N[C@@H](Cc2ccccc2)C[C@H](O)[C@H](Cc2ccccc2)NC(=O)OCc2cncs2)C(C)C)cs1 [ritonavir, 1,3-thiazol-5-ylmethyl N-[(2S,3S,5S)-3-hydroxy-5-[[(2S)-3-methyl-2-[[methyl-[(2-propan-2-yl-1,3-thiazol-4-yl)methyl]carbamoyl]amino]butanoyl]amino]-1,6-diphenylhexan-2-yl]carbamate] | minimal side effects (diarrhea, nausea and vomiting) | – | –
low micromolar | low micromolar | CC(C)CN(C[C@@H](O)[C@H](Cc1ccccc1)NC(=O)O[C@H]1CCOC1)S(=O)(=O)c1ccc(N)cc1 [amprenavir, [(3S)-oxolan-3-yl] N-[(2S,3R)-4-[(4-aminophenyl)sulfonyl-(2-methylpropyl)amino]-3-hydroxy-1-phenylbutan-2-yl]carbamate] | minimal side effects (diarrhea, nausea and vomiting) | – | IC50 for pepsin ([2]; in vitro binding and inhibition assays, IC50 from kinetic traces): low micromolar range
– | – | CC(C)CC(=O)N[C@H](C(=O)N[C@H](C(=O)N[C@@H](CC(C)C)[C@@H](O)CC(=O)N[C@@H](C)C(=O)N[C@@H](CC(C)C)[C@@H](O)CC(=O)O)C(C)C)C(C)C [pepstatin] (Isovaleryl-VV[Sta]A[Sta]-OH) | – | abrogate this damage and inflammation | water solubility [4]: poor water-solubility; also recorded: poor water-soluble characteristics; affinity / potency as pepsin inhibitor [6]: potent pepsin inhibitor; also recorded: sub-nanomolar
– | – | O.O=S(=O)([O-])[O-].O=S(=O)([O-])[O-].[Al+3].[Al+3].[Al+3].[Al+3].[Al+3].[Mg+2].[Mg+2].[Mg+2].[Mg+2].[Mg+2].[Mg+2].[Mg+2].[Mg+2].[Mg+2].[Mg+2].[OH-].[OH-].[OH-].[OH-].[OH-].[OH-].[OH-].[OH-].[OH-].[OH-].[OH-].[OH-].[OH-].[OH-].[OH-].[OH-].[OH-].[OH-].[OH-].[OH-].[OH-].[OH-].[OH-].[OH-].[OH-].[OH-].[OH-].[OH-].[OH-].[OH-].[OH-] [magaldrate] | – | – | voice quality (GRBAS dysphonia and roughness, jitter, shimmer, noise to harmonic ratio) [7]: improved voice quality
– | – | CC(C)c1cc2c(cc1S(=O)(=O)O)[C@@]1(C)CCC[C@@](C)(C(=O)O)[C@@H]1CC2 [ecabet sodium] | – | abrogate this damage and inflammation | –
– | – | anthocyanin | – | abrogate this damage and inflammation | –
